PMC10176470, “Engaging a Non-catalytic Cysteine Residue Drives Potent and Selective Inhibition of Caspase-6” (Journal of the American Chemical Society, 2023)
Like-named read-outs stand apart in the source and are kept apart here.

Tests used:
Type in all cases: cell-based
[1] = biological target: proteins of HEK293T cells transiently overexpressing caspase-6 (Homo sapiens, UniProt P84103); settings: Probe; protein SRSF3 P84103
[2] = biological target: proteins of HEK293T cells transiently overexpressing caspase-6 (Homo sapiens, UniProt P06744); settings: protein GPI (P06744), analysis C6
[3] = biological target: proteins of HEK293T cells transiently overexpressing caspase-6 (Homo sapiens, UniProt P61221); settings: exp_ref Probe; protein ABCE1 (P61221); analysis C6
[4] = biological target: proteins of HEK293T cells transiently overexpressing caspase-6 (Homo sapiens, UniProt P22314); settings: exp_ref Probe; protein UBA1 (P22314); analysis C6
Sequence of proteins of HEK293T cells transiently overexpressing caspase-6 (Homo sapiens, UniProt P22314) (P22314 whole entry): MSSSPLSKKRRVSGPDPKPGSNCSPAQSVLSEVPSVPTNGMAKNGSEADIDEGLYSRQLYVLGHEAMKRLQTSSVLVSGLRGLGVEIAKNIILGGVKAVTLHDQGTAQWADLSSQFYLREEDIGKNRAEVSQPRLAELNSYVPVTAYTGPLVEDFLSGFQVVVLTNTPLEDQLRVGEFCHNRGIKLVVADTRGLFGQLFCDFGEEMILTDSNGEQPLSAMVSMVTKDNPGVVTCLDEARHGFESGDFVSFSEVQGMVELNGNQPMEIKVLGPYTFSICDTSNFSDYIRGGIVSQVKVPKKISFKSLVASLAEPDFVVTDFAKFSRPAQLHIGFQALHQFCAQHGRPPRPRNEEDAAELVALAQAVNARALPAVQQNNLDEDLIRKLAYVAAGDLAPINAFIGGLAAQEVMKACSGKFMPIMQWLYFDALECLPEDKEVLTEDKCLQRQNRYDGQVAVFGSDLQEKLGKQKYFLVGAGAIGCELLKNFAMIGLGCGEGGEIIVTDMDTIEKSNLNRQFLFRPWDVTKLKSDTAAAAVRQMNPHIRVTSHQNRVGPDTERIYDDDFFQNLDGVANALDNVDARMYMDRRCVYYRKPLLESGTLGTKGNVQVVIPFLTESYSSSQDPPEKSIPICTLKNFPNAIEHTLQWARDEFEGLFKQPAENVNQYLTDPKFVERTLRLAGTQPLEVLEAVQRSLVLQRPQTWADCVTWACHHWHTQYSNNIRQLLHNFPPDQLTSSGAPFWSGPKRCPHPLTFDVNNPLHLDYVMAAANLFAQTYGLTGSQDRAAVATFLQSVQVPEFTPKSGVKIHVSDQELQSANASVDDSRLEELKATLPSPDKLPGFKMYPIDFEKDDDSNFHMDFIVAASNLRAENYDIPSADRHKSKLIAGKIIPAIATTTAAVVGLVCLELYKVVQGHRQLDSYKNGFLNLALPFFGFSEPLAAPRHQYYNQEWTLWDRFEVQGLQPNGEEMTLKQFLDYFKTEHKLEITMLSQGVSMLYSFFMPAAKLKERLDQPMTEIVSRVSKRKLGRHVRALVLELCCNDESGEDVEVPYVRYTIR

[5] = biological target: proteins of HEK293T cells transiently overexpressing caspase-6 (Homo sapiens, UniProt Q07812); settings: Probe; protein BAX Q07812
Sequence of proteins of HEK293T cells transiently overexpressing caspase-6 (Homo sapiens, UniProt Q07812) (Q07812 whole entry): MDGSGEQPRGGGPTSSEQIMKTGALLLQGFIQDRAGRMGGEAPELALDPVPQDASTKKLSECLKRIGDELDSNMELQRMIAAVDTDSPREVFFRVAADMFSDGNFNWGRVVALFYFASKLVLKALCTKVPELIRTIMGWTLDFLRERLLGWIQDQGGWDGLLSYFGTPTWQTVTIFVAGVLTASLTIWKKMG

[6] = biological target: proteins of HEK293T cells transiently overexpressing caspase-6 (Homo sapiens, UniProt P35998); settings: exp_ref Probe; protein PSMC2 (P35998); analysis C6
Sequence of proteins of HEK293T cells transiently overexpressing caspase-6 (Homo sapiens, UniProt P35998) (P35998 whole entry): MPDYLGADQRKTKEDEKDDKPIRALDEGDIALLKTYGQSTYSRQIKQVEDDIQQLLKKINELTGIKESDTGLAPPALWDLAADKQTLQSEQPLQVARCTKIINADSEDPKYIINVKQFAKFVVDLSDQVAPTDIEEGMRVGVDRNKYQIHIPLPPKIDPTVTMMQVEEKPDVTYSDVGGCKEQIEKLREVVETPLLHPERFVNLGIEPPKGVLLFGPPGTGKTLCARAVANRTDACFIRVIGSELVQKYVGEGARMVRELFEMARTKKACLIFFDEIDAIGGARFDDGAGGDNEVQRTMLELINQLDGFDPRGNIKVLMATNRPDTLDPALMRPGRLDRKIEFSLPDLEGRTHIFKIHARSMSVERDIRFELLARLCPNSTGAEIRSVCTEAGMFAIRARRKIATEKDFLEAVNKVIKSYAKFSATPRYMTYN

[7] = biological target: proteins of HEK293T cells transiently overexpressing caspase-6 (Homo sapiens, UniProt Q9P2E9); settings: exp_ref Probe; protein RRBP1 (Q9P2E9); analysis C6
[8] = biological target: T1, proteins of HEK293T cells transiently overexpressing caspase-6 (Homo sapiens, UniProt Q99832); settings: protein CCT7 (Q99832)
T1 sequence (Q99832 1-543): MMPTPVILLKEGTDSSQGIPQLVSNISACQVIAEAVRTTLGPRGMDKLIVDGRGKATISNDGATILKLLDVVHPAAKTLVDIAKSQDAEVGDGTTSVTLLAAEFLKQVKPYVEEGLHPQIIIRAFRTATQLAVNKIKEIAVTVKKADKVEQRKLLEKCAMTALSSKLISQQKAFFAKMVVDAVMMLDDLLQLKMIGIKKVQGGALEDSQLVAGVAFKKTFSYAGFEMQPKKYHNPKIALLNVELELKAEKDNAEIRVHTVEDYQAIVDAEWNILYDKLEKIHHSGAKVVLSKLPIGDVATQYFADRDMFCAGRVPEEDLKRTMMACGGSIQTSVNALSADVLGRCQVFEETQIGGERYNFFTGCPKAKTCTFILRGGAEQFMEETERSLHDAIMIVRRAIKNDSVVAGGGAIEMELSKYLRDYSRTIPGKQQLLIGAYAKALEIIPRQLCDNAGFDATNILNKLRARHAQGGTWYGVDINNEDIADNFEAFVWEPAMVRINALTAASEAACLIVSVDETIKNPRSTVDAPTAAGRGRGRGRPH

[9] = biological target: proteins of HEK293T cells transiently overexpressing caspase-6 (Homo sapiens, UniProt P33993); settings: Probe; protein MCM7 P33993
[10] = biological target: proteins of HEK293T cells transiently overexpressing caspase-6 (Homo sapiens, UniProt Q13085)
[11] = biological target: proteins of HEK293T cells transiently overexpressing caspase-6 (Homo sapiens, UniProt P55072); settings: exp_ref Probe; protein VCP (P55072); analysis C6
Sequence of proteins of HEK293T cells transiently overexpressing caspase-6 (Homo sapiens, UniProt P55072) (P55072 whole entry): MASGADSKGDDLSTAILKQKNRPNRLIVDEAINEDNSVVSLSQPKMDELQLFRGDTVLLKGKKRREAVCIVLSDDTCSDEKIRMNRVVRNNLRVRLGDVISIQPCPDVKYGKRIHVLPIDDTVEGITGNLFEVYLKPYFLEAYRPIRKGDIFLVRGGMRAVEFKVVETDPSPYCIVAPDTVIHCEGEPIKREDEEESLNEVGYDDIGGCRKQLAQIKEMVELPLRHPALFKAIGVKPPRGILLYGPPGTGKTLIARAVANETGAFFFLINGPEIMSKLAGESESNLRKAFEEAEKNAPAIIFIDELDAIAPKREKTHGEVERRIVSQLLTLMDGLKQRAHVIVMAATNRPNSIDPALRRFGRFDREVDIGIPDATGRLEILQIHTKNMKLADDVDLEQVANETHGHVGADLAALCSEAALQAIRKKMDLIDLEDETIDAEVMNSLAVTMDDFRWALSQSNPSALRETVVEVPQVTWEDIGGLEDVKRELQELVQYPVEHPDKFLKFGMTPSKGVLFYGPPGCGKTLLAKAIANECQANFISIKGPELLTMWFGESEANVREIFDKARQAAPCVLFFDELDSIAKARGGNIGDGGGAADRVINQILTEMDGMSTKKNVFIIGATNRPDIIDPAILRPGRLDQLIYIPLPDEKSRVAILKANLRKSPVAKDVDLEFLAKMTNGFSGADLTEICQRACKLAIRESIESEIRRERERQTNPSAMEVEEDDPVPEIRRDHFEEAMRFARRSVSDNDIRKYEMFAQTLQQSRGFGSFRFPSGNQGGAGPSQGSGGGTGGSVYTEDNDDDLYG

[12] = biological target: T2, proteins of HEK293T cells transiently overexpressing caspase-6 (Homo sapiens, UniProt P28074)
T2 sequence (P28074 60-263): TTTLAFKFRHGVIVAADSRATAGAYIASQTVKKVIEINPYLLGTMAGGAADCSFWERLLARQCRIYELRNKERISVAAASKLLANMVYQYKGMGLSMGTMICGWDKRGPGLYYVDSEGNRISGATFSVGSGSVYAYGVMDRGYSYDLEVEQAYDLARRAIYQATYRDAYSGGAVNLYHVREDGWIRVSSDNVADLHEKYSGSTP

[13] = biological target: T3, proteins of HEK293T cells transiently overexpressing caspase-6 (Homo sapiens, UniProt P55212); settings: for enrich.exp.med: exp_ref Probe
T3 sequence (P55212 24-293): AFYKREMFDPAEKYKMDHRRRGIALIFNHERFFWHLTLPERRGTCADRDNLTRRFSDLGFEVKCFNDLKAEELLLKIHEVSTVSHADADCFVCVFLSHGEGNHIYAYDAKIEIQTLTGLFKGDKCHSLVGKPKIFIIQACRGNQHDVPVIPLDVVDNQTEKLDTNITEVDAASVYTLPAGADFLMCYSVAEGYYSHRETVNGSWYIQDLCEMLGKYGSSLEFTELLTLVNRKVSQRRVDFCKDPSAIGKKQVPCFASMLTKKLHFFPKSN

[14] = biological target: proteins of HEK293T cells transiently overexpressing caspase-6 (Homo sapiens, UniProt Q15393); settings: exp_ref Probe; protein SF3B3 (Q15393); analysis C6
Sequence of proteins of HEK293T cells transiently overexpressing caspase-6 (Homo sapiens, UniProt Q15393) (Q15393 whole entry): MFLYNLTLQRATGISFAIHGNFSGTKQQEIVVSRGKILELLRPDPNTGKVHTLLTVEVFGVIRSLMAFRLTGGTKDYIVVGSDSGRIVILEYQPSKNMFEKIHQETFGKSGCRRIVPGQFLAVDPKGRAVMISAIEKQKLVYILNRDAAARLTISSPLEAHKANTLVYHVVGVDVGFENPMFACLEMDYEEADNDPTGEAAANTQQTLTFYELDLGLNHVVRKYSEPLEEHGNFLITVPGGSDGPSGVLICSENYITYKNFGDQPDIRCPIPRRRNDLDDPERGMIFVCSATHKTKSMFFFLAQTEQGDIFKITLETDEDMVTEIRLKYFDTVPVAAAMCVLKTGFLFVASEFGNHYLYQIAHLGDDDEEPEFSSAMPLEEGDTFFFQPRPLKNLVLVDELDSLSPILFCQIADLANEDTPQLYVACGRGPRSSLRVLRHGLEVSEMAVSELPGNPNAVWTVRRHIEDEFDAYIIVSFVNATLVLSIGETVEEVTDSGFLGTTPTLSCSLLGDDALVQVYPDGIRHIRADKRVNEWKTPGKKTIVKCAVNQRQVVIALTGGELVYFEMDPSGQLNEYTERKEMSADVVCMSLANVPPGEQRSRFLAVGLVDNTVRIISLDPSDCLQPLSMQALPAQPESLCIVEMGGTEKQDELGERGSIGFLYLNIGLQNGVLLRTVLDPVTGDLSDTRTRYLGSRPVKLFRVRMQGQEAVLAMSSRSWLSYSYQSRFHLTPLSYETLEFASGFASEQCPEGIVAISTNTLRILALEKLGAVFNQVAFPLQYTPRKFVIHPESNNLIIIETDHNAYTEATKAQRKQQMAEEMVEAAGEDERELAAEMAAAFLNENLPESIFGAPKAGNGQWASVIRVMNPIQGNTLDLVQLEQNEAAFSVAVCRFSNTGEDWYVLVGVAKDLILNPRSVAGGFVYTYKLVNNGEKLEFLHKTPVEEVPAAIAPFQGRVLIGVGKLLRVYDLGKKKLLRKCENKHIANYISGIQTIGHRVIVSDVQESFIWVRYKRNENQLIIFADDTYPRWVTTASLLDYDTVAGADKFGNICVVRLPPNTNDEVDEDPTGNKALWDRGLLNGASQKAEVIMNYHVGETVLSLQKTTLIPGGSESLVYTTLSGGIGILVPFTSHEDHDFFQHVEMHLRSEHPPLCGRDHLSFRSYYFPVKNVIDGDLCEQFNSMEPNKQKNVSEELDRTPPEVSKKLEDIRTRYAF

[15] = biological target: proteins of HEK293T cells transiently overexpressing caspase-6 (Homo sapiens, UniProt Q15233); settings: exp_ref Probe; protein NONO (Q15233); analysis C6
Sequence of proteins of HEK293T cells transiently overexpressing caspase-6 (Homo sapiens, UniProt Q15233) (Q15233 whole entry): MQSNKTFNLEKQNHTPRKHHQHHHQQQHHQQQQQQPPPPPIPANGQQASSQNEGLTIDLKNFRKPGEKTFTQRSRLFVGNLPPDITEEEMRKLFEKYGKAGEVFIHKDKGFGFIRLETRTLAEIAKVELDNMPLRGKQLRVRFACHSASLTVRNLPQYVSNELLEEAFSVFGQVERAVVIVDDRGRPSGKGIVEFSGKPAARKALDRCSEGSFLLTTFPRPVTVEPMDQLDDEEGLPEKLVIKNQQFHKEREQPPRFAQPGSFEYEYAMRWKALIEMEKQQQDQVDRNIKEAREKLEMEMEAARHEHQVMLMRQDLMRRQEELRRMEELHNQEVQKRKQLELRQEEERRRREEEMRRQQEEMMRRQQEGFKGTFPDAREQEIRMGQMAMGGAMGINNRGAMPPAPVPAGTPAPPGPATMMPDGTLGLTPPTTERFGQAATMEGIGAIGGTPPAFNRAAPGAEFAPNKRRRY

[16] = biological target: proteins of HEK293T cells transiently overexpressing caspase-6 (Homo sapiens, UniProt P61313)
[17] = biological target: proteins of HEK293T cells transiently overexpressing caspase-6 (Homo sapiens, UniProt P62917); settings: Probe; protein RPL8 P62917
[18] = protein CASP6SMALL (P55212), Expt Probe, analysis C6

Sequence of proteins of HEK293T cells transiently overexpressing caspase-6 (Homo sapiens, UniProt P84103) (P84103 whole entry): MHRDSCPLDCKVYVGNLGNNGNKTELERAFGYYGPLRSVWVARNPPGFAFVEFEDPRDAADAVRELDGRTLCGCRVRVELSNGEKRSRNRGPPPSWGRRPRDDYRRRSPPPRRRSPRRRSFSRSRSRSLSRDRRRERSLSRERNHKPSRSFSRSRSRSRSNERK

In the case of `C#CCOc1ccc([C@@H]2C[C@@H](C(=O)Nc3ccc(OC(F)(F)F)cc3)CN(S(=O)(=O)C=C)C2)cc1` (relative stereo) [13-t], the enrich.exp.med [1] is reported as -0.7077, the enrich.exp.med.lin ([2]; Expt Probe) is reported as 5.762 and the enrich.exp.med.log2 ([2]; Expt Probe) is reported as 2.527. The enrich.exp.med ([2]; exp_ref Probe) was 2.527, the enrich.exp.med [3] was -0.002133 and the enrich.exp.med [4] was 0.3187. It also gave an enrich.exp.med [5] of -2.1832, an enrich.exp.med [6] of 0.5412 and an enrich.exp.med [7] of 0.4694. It also gave an enrich.exp.med ([8]; exp_ref Probe, analysis C6) of 0.5798, an enrich.exp.med.lin [8] of 1.495 and an enrich.exp.med.log2 [8] of 0.5798. It also gave an enrich.exp.med [9] of -1.046, an enrich.exp.med ([10]; Probe, protein ACACA Q13085) of -2.123 and an enrich.exp.med.lin ([10]; protein ACACA (Q13085)) of 0.2296. The enrich.exp.med.log2 ([10]; protein ACACA (Q13085)) was -2.123, the enrich.exp.med [11] was -0.3231 and the enrich.exp.med ([12]; Probe, protein PSMB5 P28074) was -2.323. The enrich.exp.med.lin ([12]; protein PSMB5 (P28074)) was 0.1999, the enrich.exp.med.log2 ([12]; protein PSMB5 (P28074)) was -2.323 and the enrich.exp.med ([13]; protein CASP6LARGE (P55212), analysis C6) was 0.6468. The enrich.exp.med.lin ([13]; protein CASP6LARGE (P55212)) was 1.566, the enrich.exp.med.log2 ([13]; protein CASP6LARGE (P55212)) was 0.6468 and the enrich.exp.med.lin ([13]; protein CASP6SMALL (P55212)) was 9.435. It also gave an enrich.exp.med.log2 ([13]; protein CASP6SMALL (P55212)) of 3.238, an enrich.exp.med.lin [13, 18] of 9.435 and an enrich.exp.med.log2 [13, 18] of 3.238. For the same molecule, the enrich.exp.med ([13]; protein CASP6SMALL (P55212), analysis C6) was 3.238, the enrich.exp.med [14] was -0.1408 and the enrich.exp.med [15] was 0.7906. For the same molecule, the enrich.exp.med ([16]; Probe, protein RPL15 P61313) was -0.9576, the enrich.exp.med.lin ([16]; protein RPL15 (P61313)) was 0.5149 and the enrich.exp.med.log2 ([16]; protein RPL15 (P61313)) was -0.9576. The enrich.exp.med [17] was -0.8445.
